Results on 60 molecules are retold here after US12577217B2, “15-PGDH inhibitor” (KYORIN Pharmaceutical Co., Ltd., priority 2019, dated 2026).

Some results are limits rather than exact numbers.

This experiment has as its target T1, recombinant human 15-PGDH (Homo sapiens, UniProt P15428).
T1 construct: purchased R&D Systems
T1 sequence (P15428 1-266): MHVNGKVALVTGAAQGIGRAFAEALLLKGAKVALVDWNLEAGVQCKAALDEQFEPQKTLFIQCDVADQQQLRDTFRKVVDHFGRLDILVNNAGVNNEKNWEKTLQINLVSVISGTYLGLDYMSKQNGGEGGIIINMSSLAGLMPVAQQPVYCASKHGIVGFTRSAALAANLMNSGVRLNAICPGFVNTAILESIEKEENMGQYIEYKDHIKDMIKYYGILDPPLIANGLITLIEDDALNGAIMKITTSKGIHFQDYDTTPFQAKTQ
The experiment is described as follows: 15-PGDH enzyme inhibition test. In kind it is biochemical. Particulars: 4 nM recombinant human 15-PGDH, 30 μM PGE2, 1 mM NAD+, 60 minutes after starting the reaction; read-out: IC50 Value. The procedure, abridged:
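4 nM recombinant human enzyme pre-incubated with compound 12 min at room temperature in 50 mM Tris-HCl pH 8.0 with 0.01% Tween 20 and 0.01% bovine gamma globulin. Reaction started with 30 μM PGE2 and 1 mM NAD+, read after 60 min by fluorescence (ex 340/em 440 nm). IC50 from concentration-response curve.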

As for `CCN1Cc2cc(N3CCCc4cc(C(=O)N5CCC[C@@H](C(F)F)C5)cnc43)ccc2C1=O` [Example 8-93], the IC50 was less than 10 nM. `Cn1nc2cc(N3CCOc4cc(C(=O)N5CCCCC5)cnc43)c(Cl)cn2c1=O` [Example 1-270]: the IC50 was more than 100 nM. As for `CN1Cc2cc(N3CCOc4cc(C(=O)N5CCCCC5)cnc43)ncc2C1=O` [Example 1-103], the figure is less than 10 nM; as for `O=C(c1cnc2c(c1)CCCN2c1cnc2c(=O)[nH]ncc2c1)N1CCCCC1` [Example 1-195], less than 10 nM; as for `CNC(=O)c1ccc(N2CCOc3cc(C(=O)N4CCCCC4)cnc32)c(C)c1` [Example 6-13], more than 100 nM. As for `Cn1nc2cc(N3CCOc4cc(C(=O)N5CCCCC5)sc43)ccn2c1=O` [Example 8-222], the figure is less than 10 nM. Turning to `COC(=O)C1CN(C(=O)c2cnc3c(c2)OCCN3c2ccn3c(=O)n(C)nc3c2)C1` [Example 8-37], the IC50 is less than 10 nM. `O=C(O)c1ccc(N2CCOc3cc(C(=O)N4CCCCC4)sc32)cc1` [Example 4-12]: the IC50 is less than 10 nM. The result for `COC(=O)c1ccc(N2CCCc3cc(C(=O)N4CCCCC4)ccc32)cc1` [Example 1-131] reads less than 10 nM; that for `COCn1nc2cc(N3CCOc4cc(C(=O)N5CCCCC5)cnc43)ccn2c1=O` [Example 1-22], less than 10 nM.

Regarding `CCOCn1nc2cc(N3CCCc4cc(C(=O)N5CCC[C@@H](CF)C5)cnc43)ccn2c1=O` [Example 1-122], the IC50 was less than 10 nM.

On to `Cn1nc2cc(N3CCOc4cc(C(=O)N5CCCC6CC65)cnc43)ccn2c1=O` (single isomer, unassigned) [23-1 Isomer A, 7-(7-(2-Azabicyclo[4,1,0]heptane-2-carbonyl)-2,3-dihydro-4H-pyrido[3,2-b][1,4]oxazin-4-yl)-2-methyl-[1,2,4]triazolo[4,3-a]pyridin-3(2H)-one], for which the IC50 was less than 10 nM. As for `O=C(c1cnc2c(c1)CCCN2c1ccc(Cl)cc1)N1CCCCC1` [Example 1-211], the figure is 10 to 100 nM; as for `CCn1nc2cc(N3CCCc4cc(C(=O)N5CCC[C@H](F)C5)cnc43)ccn2c1=O` [Example 8-163], less than 10 nM. Take `O=C(c1cnc2c(c1)OCCN2c1ccn2c(=O)n(-c3ccccc3)nc2c1)N1CCCCC1` [Example 21-1, 2-Phenyl-7-(7-(piperidine-1-carbonyl)-2,3-dihydro-4H-pyrido[3,2-b] [1,4]oxazin-4-yl)-[1,2,4]triazolo[4,3-a]pyridin-3 (2H)-one]: the IC50 is less than 10 nM. As for `Cn1nc2cc(N3CCOc4cc(C(=O)N5CCCC(C(F)(F)F)C5)cnc43)ccn2c1=O` (stereo not drawn) [Example 8-109], the figure is less than 10 nM; as for `Cn1nc2cc(N3CCOc4nc(C(=O)N5CCCCC5)ccc43)ccn2c1=O` [Example 8-53], less than 10 nM; as for `C#CC1CCN(C(=O)c2cnc3c(c2)OCCN3c2ccn3c(=O)n(C)nc3c2)CC1` [Example 8-111], less than 10 nM.

On to `COCn1nc2cc(N3CCOc4cc(C(=O)N5CCC[C@H](C)C5)cnc43)ccn2c1=O` [Example 1-41], for which the IC50 was less than 10 nM. The result for `C[C@H]1CCCN(C(=O)c2cnc3c(c2)OCCN3c2ccn3c(=O)n(C)nc3c2)C1` [Example 8-34] reads less than 10 nM; that for `CC(C)(C(=O)O)c1ccc(N2CCOc3cc(C(=O)N4CCCCC4)cnc32)cc1` [Example 2-37], more than 100 nM.

On to `O=C(c1cnc2c(c1)OCCN2c1ccc2cnccc2c1)N1CCCCC1` [Example 1-259], for which the IC50 was less than 10 nM.

Turning to `CN1Cc2cc(N3CCOc4cc(C(=O)N5CCC[C@H](C(F)(F)F)C5)cnc43)ccc2C1=O` [Example 8-208], the 50% inhibitory concentration (IC50) is less than 10 nM. The result for `CCCCn1nc2cc(N3CCCc4cc(C(=O)N5CCCCC5)cnc43)ccn2c1=O` [Example 1-203] reads less than 10 nM.

For `CCn1nc2cc(N3CCOc4cc(C(=O)N5CCN(C(C)=O)CC5)cnc43)ccn2c1=O` [Example 8-219], the concentration for half-maximal inhibition (IC50) is more than 100 nM.

Turning to `O=C(c1ccc2c(c1)OCCN2c1ccc(-c2nnn[nH]2)cc1)N1CCC(F)(F)CC1` [Example 3-1, (4-(4-(1H-Tetrazol-5-yl)phenyl)-3,4-dihydro-2H-benzo[b][1,4]oxazin-7-yl)(4,4-difluoropiperidin-1-yl)methanone], the IC50 is less than 10 nM. The result for `CC(=O)NC(C)(C)c1ccc(N2CCOc3cc(C(=O)N4CCCCC4)cnc32)cc1` [Example 31-1] reads more than 100 nM. As for `Cc1cc(N2CCOc3cc(C(=O)N4CCCCC4)cnc32)ccc1C(=O)O` [Example 4-16], the figure is less than 10 nM. For `C[C@H]1COc2cc(C(=O)N3CCCCC3)ccc2N(c2ccc(C(=O)O)cc2)C1` [Example 2-10], the IC50 is less than 10 nM. On to `O=C(c1cnc2c(c1)CCCN2c1ccccc1)N1CCCCC1` [Example 1-199], for which the IC50 lay within 10 to 100 nM. Turning to `Cn1nc2cc(N3CCOc4cc(C(O)C5CCC(F)(F)CC5)cnc43)ccn2c1=O` (stereo not drawn) [Example 19-2], the IC50 was 10 to 100 nM. As for `CCn1nc2cc(N3CCCc4cc(C(=O)N5Cc6ccccc6C5)cnc43)ccn2c1=O` [Example 8-156], the figure is less than 10 nM. For `Cn1nc2cc(N3CCOc4cc(C(=O)N5CC=CCC5)cnc43)ccn2c1=O` [Example 8-229], the IC50 is less than 10 nM.

With `Cn1nc2cc(N3CCOc4cc(C(=O)N5CCCCCCC5)sc43)ccn2c1=O` [Example 8-224], the IC50 lay in the range of 10 to 100 nM. Consider `Cc1c(C(=O)N2CCCCC2)ccc2c1OCCN2c1ccc(C(=O)O)cc1` [Example 4-1, 4-(8-Methyl-7-(piperidine-1-carbonyl)-2,3-dihydro-4H-benzo[b][1,4]oxazin-4-yl)benzoic Acid], for which the IC50 is less than 10 nM. As to `Cn1nc2cc(N3CCOc4cc(C(=O)N5Cc6ccccc6C5)cnc43)ccn2c1=O` [Example 8-103], the IC50 was less than 10 nM. The result for `O=C(O)c1ccc(N2CCCc3cc(C(=O)N4CCCCC4)cnc32)cc1` [Example 2-34] reads less than 10 nM. The result for `CN1Cc2cc(N3CCCc4cc(C(=O)N5CCC(F)(F)CC5)cnc43)cnc2C1=O` [Example 1-84] reads less than 10 nM; that for `CC(C)(C(N)=O)c1ccc(N2CCOc3cc(C(=O)N4CCCCC4)cnc32)cc1` [Example 6-20], more than 100 nM.

With `CC(C)(C)OC(=O)c1ccc(N2CCOc3cc(C(=O)N4CCC[C@H](F)C4)cnc32)cc1` [Example 8-8], the IC50 was more than 100 nM.

In the case of `Cn1nc2cc(N3CCOc4cc(C(=O)C5CCC(F)(F)CC5)cnc43)ccn2c1=O` [Example 1-132], the IC50 was less than 10 nM. As for `CCN1Cc2cc(N3CCCc4cc(C(=O)N5CCCC(F)(F)C5)cnc43)ccc2C1=O` [Example 8-85], the 50% inhibitory concentration (IC50) was less than 10 nM.

As for `O=C(c1cnc2c(c1)CCCN2c1cnc2c(=O)[nH]cnc2c1)N1CCC(F)(F)CC1` [Example 1-192], the IC50 is less than 10 nM.

Consider `CCCCN1Cc2cc(N3CCCc4cc(C(=O)N5CCCCC5)cnc43)ccc2C1=O` [Example 1-197], for which the IC50 was less than 10 nM. As for `Cn1nc2cc(N3CCOc4cc(C(=O)N5CCC[C@H]5C(=O)O)cnc43)ccn2c1=O` [Example 35-1, (4-(2-Methyl-3-oxo-2,3-dihydro-[1,2,4]triazolo[4,3-a]pyridin-7-yl)-3,4-dihydro-2H-pyrido[3,2-b][1,4]oxazine-7-carbonyl)-L-proline], the figure is more than 100 nM; as for `CS(=O)(=O)c1ccc(N2CCOc3cc(C(=O)N4CCCCC4)cnc32)cc1Cl` [Example 1-254], 10 to 100 nM; as for `CN1Cc2cc(N3CCOc4cc(C(=O)C5CCCCC5)cnc43)ccc2C1=O` [Example 1-134], less than 10 nM. As for `O=C(c1cnc2c(c1)OCCN2c1ccc2c(=O)[nH]oc2c1)N1CCCCC1` [Example 14-1], the figure is less than 10 nM; as for `Cn1nc2cc(N3CCCc4cc(C(=O)N5CCCCC5)ccc43)ccn2c1=O` [Example 1-130], less than 10 nM.

`Cn1nc2cc(N3CCOc4cc(C(=O)N5CCOCC5)cnc43)ccn2c1=O` [Example 8-225]: the IC50 lay in the range of 10 to 100 nM. For `O=C(O)c1ccccc1N1CCc2cc(C(=O)N3CCCCC3)ccc21` [Example 2-28], the IC50 is more than 100 nM.

As for `O=C(c1cnc2c(c1)OCCN2c1ccn2nnnc2c1)N1CCCCC1` [Example 1-104], the IC50 is less than 10 nM.

For `COC(=O)c1ccccc1N1CCOc2cc(C(=O)N3CCCCC3)cnc21` [Example 1-263], the IC50 was more than 100 nM. For the molecule `CC(C)(O)Cn1nc2cc(N3CCOc4cc(C(=O)N5CCCCC5)cnc43)ccn2c1=O` [Example 15-1, 2-(2-Hydroxy-2-methylpropyl)-7-(7-(piperidine-1-carbonyl)-2,3-dihydro-4H-pyrido[3,2-b][1,4]oxazin-4-yl)-[1,2,4]triazolo[4,3-a]pyridin-3(2H)-one], the IC50 is less than 10 nM. As for `C[C@H]1CCCN(C(=O)c2cnc3c(c2)OCCN3c2ccc3c(c2)CN(C)C3=O)C1` [Example 8-198], the figure is less than 10 nM. Regarding `CCn1nc2cc(N3CCOc4cc(C(=O)N5CCN(C(=O)OC(C)(C)C)CC5)cnc43)ccn2c1=O` [Example 8-220], the IC50 is more than 100 nM. The result for `Cn1nc2cc(N3CCCc4cc(S(=O)(=O)C5CCCCC5)cnc43)ccn2c1=O` [Example 7-8] reads more than 100 nM; that for `CCn1nc2cc(N3CCOc4cc(C(=O)N5CCC(F)(F)CC5)cnc43)ccn2c1=O` [Example 8-211], less than 10 nM; that for `Cn1nc2cc(N3CCOc4cc(C(=O)N5C[C@H](O)C[C@H](O)C5)cnc43)ccn2c1=O` [Example 8-108], 10 to 100 nM. Take `CN1Cc2cc(N3CCOc4cc(C(=O)N5CCC[C@H](CF)C5)cnc43)ccc2C1=O` [Example 8-204]: the IC50 was less than 10 nM.

In general, IC50 refers to the concentration that gives 50% inhibition.
